The source of these data is patent US10752601B2, “Crystal form and salt of 3-(3,5-dichloro-4-hydroxybenzoyl)-1,1-dioxo-2,3-dihydro-1,3-benzothiazole” (FUJI YAKUHIN CO., LTD., priority 2017, dated 2020).

Series [1] in a line: Test Example 2 (absorption properties at time of oral administration to rat). Format: in vivo. As to conditions: single oral, mean ± SD (n = 4); for concentration at 1 hr: read-out: Unchanged compound level in blood plasma 1 hr; for concentration at 2 hr: read-out: Unchanged compound level in blood plasma 2 hr; for concentration at 4 hr: read-out: Unchanged compound level in blood plasma 4 hr; for concentration at 8 hr: read-out: Unchanged compound level in blood plasma 8 hr; for concentration at 24 hr: read-out: Unchanged compound level in blood plasma 24 hr; for AUC(0-t): read-out: AUC0-24 hr. The protocol:
A test substance suspended in a 0.5% solution of methylcellulose was orally administered to a male CD (SD) rat (CHARLES RIVER LABORATORIES JAPAN, INC., 7 weeks old when used) in a dose of 30 and 300 mg/kg, and blood was then collected after 0.25, 0.5, 1, 2, 4, 8, and 24 hours. The level of unchanged compound in blood plasma was measured by HPLC (Table 2, Table 3), and pharmacokinetic parameters were calculated and absorption was evaluated (Table 4).

A short description of series [2]: Test Example 1 (flowability and floodability), Carr index table. Format: physicochemical. The protocol:
Test Example 1 (flowability and floodability): the compressibility was calculated by measuring bulk density and tap density of the crystals in Examples 1 and 2, and moreover, their dynamic bulk density, angle of repose, angle of spatula, uniformity, cohesion, angle of fall, angle of difference, and degree of dispersion were found, and flowability and floodability were evaluated using the Carr index table. (Table 1).

Setting [3] is: male, CD (SD), plasma, po, 300 mg/kg, 300 mg/kg.
[4] abbreviates: male, CD (SD), plasma, po, 30 mg/kg, 30 mg/kg.

Usually Cmax stands for the peak of the concentration-time curve. The Tmax is the time at which the peak concentration occurs.

Read-outs that look alike come from different tables or passages of the source.

As for `O=C(c1cc(Cl)c(O)c(Cl)c1)N1CS(=O)(=O)c2ccccc21` [Example 2, 3-(3,5-dichloro-4-hydroxybenzoyl)-1,1-dioxo-2,3-dihydro-1,3-benzothiazole], in series [1] (setting [3]), the concentration at 1 hr was 140 ± 20.3 µg/mL, the concentration at 2 hr was found to be 264 ± 42.2 µg/mL, the concentration at 4 hr was found to be 314 ± 11.2 µg/mL and the concentration at 8 hr was determined as 267 ± 38.4 µg/mL. For the same molecule, in series [1] (setting [3]), the concentration at 24 hr came to 47.2 ± 19.9 µg/mL and the AUC(0-t) was found to be 4530 ± 269 µg·h/mL. Moreover, the Cmax in series [1] (male, CD (SD), plasma, po, 300 mg/kg, 300 mg/kg, read-out: Cmax) was 316 ± 11.4 µg/mL. For the same molecule, the time to peak (Tmax) in series [1] (male, CD (SD), plasma, po, 300 mg/kg, 300 mg/kg, read-out: Tmax) was determined as 3.5 ± 1 h. In addition, in series [1] (30 mg/kg), the “Unchanged compound level in blood plasma 0.25 hr” value worked out at 12.45 ± 3.94 µg/mL, the “Unchanged compound level in blood plasma 0.5 hr” value amounted to 27.41 ± 4.71 µg/mL, the “Unchanged compound level in blood plasma 1 hr” value is 37.38 ± 2.85 µg/mL and the “Unchanged compound level in blood plasma 2 hr” value is 38.54 ± 0.91 µg/mL. Further, in series [1] (30 mg/kg), the “Unchanged compound level in blood plasma 4 hr” value stood at 23.23 ± 3.08 µg/mL, the “Unchanged compound level in blood plasma 8 hr” value is 19.23 ± 2.51 µg/mL, the “Unchanged compound level in blood plasma 24 hr” value stood at 1.35 ± 0.73 µg/mL and the AUC0-24 hr worked out at 371.97 ± 34.08 µg·h/mL. Moreover, in series [1] (30 mg/kg), the Cmax turned out to be 39.03 ± 0.43 µg/mL and the Tmax is 1.50 ± 0.58 h. In series [1] (300 mg/kg), the “Unchanged compound level in blood plasma 0.25 hr” value stood at 39.18 ± 4.61 µg/mL and the “Unchanged compound level in blood plasma 0.5 hr” value was determined as 79.93 ± 13.24 µg/mL. Further, in series [2] (after pulverization), the Floodability index is recorded as 49.5 and the Flowability index amounted to 42. In series [2] (before pulverization), the Floodability index was determined as 57.5 and the Flowability index was determined as 65.
With `O=C(c1cc(Cl)c(O)c(Cl)c1)N1CS(=O)(=O)c2ccccc21` [Example 1, 3-(3,5-dichloro-4-hydroxybenzoyl)-1,1-dioxo-2,3-dihydro-1,3-benzothiazole], in series [1] (setting [4]), the concentration at 1 hr came out at 49.8 ± 22.7 µg/mL, the concentration at 2 hr worked out at 33 ± 11 µg/mL, the concentration at 4 hr is 26.6 ± 13 µg/mL and the concentration at 8 hr amounted to 20.4 ± 5.53 µg/mL. Further, in series [1] (setting [4]), the concentration at 24 hr stood at 1.16 ± 0.45 µg/mL and the AUC(0-t) was 412 ± 123 µg·h/mL. In addition, the Cmax in series [1] (male, CD (SD), plasma, po, 30 mg/kg, 30 mg/kg, read-out: Cmax) worked out at 59.2 ± 29.5 µg/mL. In series [1] (30 mg/kg), the “Unchanged compound level in blood plasma 0.25 hr” value is 38.18 ± 23.24 µg/mL, the “Unchanged compound level in blood plasma 0.5 hr” value worked out at 58.51 ± 30.81 µg/mL and the Tmax was 0.63 ± 0.25 h. For the same molecule, in series [1] (300 mg/kg), the “Unchanged compound level in blood plasma 0.25 hr” value was determined as 174.78 ± 19.03 µg/mL, the “Unchanged compound level in blood plasma 0.5 hr” value stood at 275.88 ± 42.51 µg/mL, the “Unchanged compound level in blood plasma 1 hr” value was 275.53 ± 30.24 µg/mL and the “Unchanged compound level in blood plasma 2 hr” value was 298.88 ± 35.19 µg/mL. In addition, in series [1] (300 mg/kg), the “Unchanged compound level in blood plasma 4 hr” value was determined as 285.55 ± 26.38 µg/mL, the “Unchanged compound level in blood plasma 8 hr” value was 267.85 ± 25.73 µg/mL, the “Unchanged compound level in blood plasma 24 hr” value was determined as 73.31 ± 27.54 µg/mL and the AUC0-24 hr was found to be 4923.74 ± 547.44 µg·h/mL. In series [1] (300 mg/kg), the Cmax was 307.28 ± 26.20 µg/mL and the Tmax was found to be 4.00 ± 2.83 h. Moreover, in series [2] (after pulverization), the Floodability index came out at 43 and the Flowability index is recorded as 36.
